“And” between values parts separate entries of the source, which are not always exact repeats. Equal values may be shown once.
Assays:
Assay in all cases: normalised viability (% of control), CellTiter-Blue; higher = more viable cells (about 100 = DMSO control)
Details in all cases: incubation time: 72 h
HCC1937 = test system: HCC1937
Outline: (§1)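 Each value is normalised viability at a single listed concentration of the series. Breast cancer cell lines in 384-well plates were incubated 72 h with compound and read by CellTiter-Blue fluorescence at 560/590 nm, with vehicle set to 100 and a positive kill control to 0 on every plate.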

CAL-85-1 = test system: CAL-85-1
Outline: as §1

HCC1143 = test system: HCC1143
Outline: as §1

BT-474 = test system: BT-474
Outline: as §1

MFM-223 = test system: MFM-223
Outline: as §1

Hs578T = test system: Hs578T
Outline: as §1

HDQ-P1 = test system: HDQ-P1
Outline: as §1

MDA-MB-436 = test system: MDA-MB-436
Outline: as §1

HCC1599 = test system: HCC1599
Outline: as §1

CAL-51 = test system: CAL-51
Outline: as §1

DU-4475 = test system: DU-4475
Outline: as §1

CCC/C=C/C=C/C(=O)O[C@H]1/C(=C/C(=O)OC)C[C@H]2C[C@H]([C@@H](C)O)OC(=O)C[C@H](O)C[C@@H]3C[C@H](OC(C)=O)C(C)(C)[C@](O)(C[C@@H]4C/C(=C/C(=O)OC)C[C@H](/C=C/C(C)(C)[C@]1(O)O2)O4)O3 [Bryostatin 1]
Details	normalised viability [%]
BT-474, 10 nM	109
BT-474, 1000 nM	109
BT-474, 10000 nM	102
CAL-51, 0.03 nM	108
CAL-51, 0.3 nM	104
CAL-51, 1 nM	108
CAL-85-1, 0.03 nM	95.3
CAL-85-1, 0.3 nM	107
CAL-85-1, 1 nM	117
DU-4475, 0.03 nM	92.7
DU-4475, 0.3 nM	79.2
DU-4475, 1 nM	91.2
HCC1143, 0.1 nM	85.3
HCC1143, 10 nM	80.5
HCC1143, 100 nM	80.5
HCC1599, 0.1 nM	112
HCC1599, 10 nM	116
HCC1599, 100 nM	115
HCC1937, 10 nM	108
HCC1937, 1000 nM	80.2
HCC1937, 10000 nM	103
HDQ-P1, 0.03 nM	104
HDQ-P1, 0.3 nM	106
HDQ-P1, 1 nM	107
Hs578T, 0.1 nM	95.1
Hs578T, 10 nM	97
Hs578T, 100 nM	106
MDA-MB-436, 0.1 nM	110
MDA-MB-436, 10 nM	103
MDA-MB-436, 100 nM	127
MFM-223, 0.1 nM	97
MFM-223, 10 nM	91.2
MFM-223, 100 nM	94.6

CO[C@@H](C(=O)N1Cc2[nH]nc(NC(=O)c3ccc(N4CCN(C)CC4)cc3)c2C1)c1ccccc1 [Danusertib]
normalised viability [%]
Details	3 nM	10 nM	30 nM	100 nM	1000 nM	10000 nM
BT-474	–	105	–	–	88.3	96.5
CAL-51	116	–	116	74.3	–	–
CAL-85-1	85.8	–	82.8	76.2	–	–
DU-4475	89.8	–	88.2	70.6	–	–
HCC1143	–	78.2	–	–	61.8	31.3
HCC1599	–	98.4	–	–	74.7	73.1
HCC1937	–	99.8	–	–	41.7	41
HDQ-P1	89.9	–	90.7	72.4	–	–
Hs578T	–	95.4	–	–	59.3	23.9
MDA-MB-436	–	89.7	–	–	72	60.9
MFM-223	–	71.3	–	–	36.9	55.4

Cc1nc(Nc2ncc(C(=O)Nc3c(C)cccc3Cl)s2)cc(N2CCN(CCO)CC2)n1 [Dasatinib]
Details	normalised viability
BT-474, 1 nM	126% and 102%
BT-474, 100 nM	113% and 96.2%
BT-474, 1000 nM	97.9% and 95.4%
CAL-51, 0.3 nM	106% and 112%
CAL-51, 3 nM	92.3% and 93.9%
CAL-51, 10 nM	79.3% and 84.4%
CAL-85-1, 0.3 nM	97.8% and 95.5%
CAL-85-1, 3 nM	84.2% and 87.7%
CAL-85-1, 10 nM	87.9% and 92.9%
DU-4475, 0.3 nM	107% and 83.4%
DU-4475, 3 nM	101% and 97.1%
DU-4475, 10 nM	101% and 95.7%
HCC1143, 1 nM	100% and 78.6%
HCC1143, 100 nM	65.4% and 55%
HCC1143, 1000 nM	48.9% and 37.6%
HCC1599, 1 nM	109% and 107%
HCC1599, 100 nM	103% and 114%
HCC1599, 1000 nM	101% and 100%
HCC1937, 1 nM	95.7% and 92.3%
HCC1937, 100 nM	53.9% and 78%
HDQ-P1, 0.3 nM	106% and 111%
HDQ-P1, 3 nM	83.8% and 84.8%
Hs578T, 1 nM	108% and 102%
Hs578T, 100 nM	55.5% and 45.7%
Hs578T, 1000 nM	27% and 24.8%
MDA-MB-436, 1 nM	91.2% and 105%
MDA-MB-436, 100 nM	64.8% and 56.8%
MDA-MB-436, 1000 nM	40.4% and 30.4%
MFM-223, 1 nM	96.2% and 96.8%
MFM-223, 100 nM	84.3% and 90.4%
MFM-223, 1000 nM	70.1% and 72%

O=S(=O)(c1cccc2cnccc12)N1CCCNCC1 [Fasudil]
normalised viability [%]
Details	3 nM	10 nM	30 nM	100 nM	1000 nM	10000 nM
BT-474	–	112	–	–	112	126
CAL-51	118	–	108	116	–	–
CAL-85-1	96.6	–	90.4	93.3	–	–
DU-4475	100	–	109	101	–	–
HCC1143	–	85.1	–	–	96.2	80.2
HCC1599	–	99.9	–	–	102	117
HCC1937	–	122	–	–	105	90.6
HDQ-P1	111	–	99	117	–	–
Hs578T	–	98.4	–	–	114	116
MDA-MB-436	–	83.5	–	–	108	107
MFM-223	–	102	–	–	89	77.7

CS(=O)(=O)N1CCN(Cc2cc3nc(-c4cccc5[nH]ncc45)nc(N4CCOCC4)c3s2)CC1 [GDC-0941]
Details	normalised viability [%]
BT-474, 10 nM	109
BT-474, 1000 nM	41.3
BT-474, 10000 nM	11
CAL-51, 3 nM	117
CAL-51, 30 nM	106
CAL-51, 100 nM	89.4
CAL-85-1, 30 nM	77.7
CAL-85-1, 100 nM	83.5
DU-4475, 3 nM	107
DU-4475, 30 nM	98.8
DU-4475, 100 nM	95.5
HCC1143, 10 nM	73.2
HCC1143, 1000 nM	52.1
HCC1143, 10000 nM	21.2
HCC1599, 10 nM	96.8
HCC1599, 1000 nM	55
HCC1599, 10000 nM	28
HCC1937, 10 nM	114
HCC1937, 1000 nM	60.8
HCC1937, 10000 nM	25.5
HDQ-P1, 3 nM	93.6
HDQ-P1, 30 nM	93.8
HDQ-P1, 100 nM	69.3
Hs578T, 10 nM	112
Hs578T, 1000 nM	62.3
Hs578T, 10000 nM	19.6
MDA-MB-436, 10 nM	97.7
MDA-MB-436, 1000 nM	68.1
MDA-MB-436, 10000 nM	22.9
MFM-223, 10 nM	95.7
MFM-223, 1000 nM	43.5
MFM-223, 10000 nM	13.1

Cc1c(CN2CCN(C(=O)[C@H](C)O)CC2)sc2c(N3CCOCC3)nc(-c3cnc(N)nc3)nc12 [GDC-0980]
normalised viability [%]
Details	3 nM	10 nM	30 nM	100 nM	1000 nM	10000 nM
BT-474	–	115	–	–	22.1	12.3
CAL-51	112	–	98.5	71.9	–	–
CAL-85-1	102	–	83.3	89.2	–	–
DU-4475	102	–	82.1	83.5	–	–
HCC1143	–	88.7	–	–	33.8	15.6
HCC1599	–	95	–	–	39.7	35.3
HCC1937	–	113	–	–	39.7	26.2
HDQ-P1	91.9	–	84.3	70.8	–	–
Hs578T	–	121	–	–	28.9	17.1
MDA-MB-436	–	81.2	–	–	44.7	18.2
MFM-223	–	86.1	–	–	18.1	14.2

Nc1cccc2c1CN(C1CCC(=O)NC1=O)C2=O (stereo unspecified) [Lenalidomide]
normalised viability
Details	3 nM	10 nM	30 nM	100 nM	1000 nM	10000 nM
BT-474	–	104% and 109%	–	–	117% and 107%	117% and 104%
CAL-51	106% and 108%	–	99.4% and 99.6%	99.9% and 97.6%	–	–
CAL-85-1	82.3% and 93%	–	76.5% and 84.1%	86% and 96.7%	–	–
DU-4475	92.4% and 107%	–	89.8% and 80.5%	94.3% and 93.8%	–	–
HCC1143	–	76.4% and 66.6%	–	–	89.1% and 70%	72% and 72.4%
HCC1599	–	82.8% and 82.1%	–	–	91.9% and 86.6%	113% and 103%
HCC1937	–	92.3% and 85.5%	–	–	86.2% and 84.6%	78.2% and 87.7%
HDQ-P1	95.7% and 91.8%	–	106% and 83.8%	92.3% and 86.8%	–	–
Hs578T	–	107% and 99.5%	–	–	111% and 97.7%	100% and 95.5%
MDA-MB-436	–	98.1% and 99.7%	–	–	85% and 101%	107% and 112%
MFM-223	–	87.7% and 85.8%	–	–	90.2% and 96.7%	100% and 104%

C[C@]12O[C@H](C[C@]1(O)CO)n1c3ccccc3c3c4c(c5c6ccccc6n2c5c31)CNC4=O [Lestaurtinib]
normalised viability [%]
Details	0.3 nM	1 nM	3 nM	10 nM	100 nM	1000 nM
BT-474	–	120	–	–	110	69
CAL-51	113	–	108	106	–	–
CAL-85-1	106	–	97.8	102	–	–
DU-4475	93.2	–	104	100	–	–
HCC1143	–	107	–	–	89.8	61.6
HCC1599	–	102	–	–	94.6	64.8
HCC1937	–	89	–	–	77.4	31.3
HDQ-P1	119	–	112	126	–	–
Hs578T	–	110	–	–	122	63.3
MDA-MB-436	–	102	–	–	93.4	55.5
MFM-223	–	97.6	–	–	80.9	42.8

Reference: the supplement of paper PMC4862054
